pEC50, pIC50: −log10 of the molar value. ≈ marks a conversion by molar mass, not a printed value.
What was measured:
Assay type in all cases: cell-based
[1] = Cytotoxicity against 3T3 cells; conditions: mouse
[2] = system: P. falciparum 3D7 (chloroquine-sensitive); test: Anti-malarial activity, P. falciparum 3D7 culture, 72 hour, DNA content by flow cytometry; conditions: Plasmodium falciparum, 3D7, 72 h, synchronized ring-stage parasites
Experimental: Numerous compounds were screened in cultures of the malaria parasite P. falciparum 3D7 (chloroquine-sensitive) and DD2 (chloroquine-resistant). The compounds were also screened for toxixcity against 3T3 cells, HepG2 cells, and in a hemolysis assay. In brief, P. falciparum parasites were cultured in RPMI 1640 (Invitrogen) supplemented with Albumax II (Invitrogen). For synchronization, schizont stage parasites were magnet purified using a SuperMACS™ II Cell Separation Unit (Miltenyi Biotech). For IC50 determinations, synchronized ring-stage parasites were plated at 0.5% parasitemia and 8% hematocrit in 96-well plates at a total volume of 50 μL. Serial dilutions of 2× concentration of the respective compound, ranging from 2.5 μM to 20 nM, were added to the wells to bring the total volume up to 100 μL and 4% hematocrit. Compounds were assayed for a 72 hour period, after which the cultures were fixed with a solution of 4% paraformaldehyde and 0.08% glutaraldhyde in PBS. The cells were then permeabilized with 0.25% Triton X-100, and SYTOX Green Nucleic Acid Stain (Invitrogen) in PBS was added to a final concentration of 5 μM. DNA content, as an indicator of parasitemia, was analyzed on an Accuri C6 Flow Cytometer with C-Sampler. IC50 curves were generated using GraphPad Prism (GraphPad Software).

[3] = Cytotoxicity against HepG2 cells; conditions: human
[4] = in vitro
[5] = 3T3 cells, read-out: Cytotoxicity 3T3 EC50
[6] = HepG2 cells, read-out: Cytotoxicity HepG2 EC50

pIC50 [2]	EC50 [4] [µg/mL]	SMILES	pEC50 [1, 5]	pEC50 [3, 6]	pEC50 [1]	pEC50 [3]	EC50 ([4]; hemolysis assay, read-out: Cytotoxicity Hemolysis EC50) [µg/mL]
6.74	32 (≈ 68.3 µM)	NCCSc1ccc(NC(=O)c2cc(C(=O)Nc3ccc(SCCN)cc3)ncn2)cc1 [Compound 192]	3.02	< 3.00	–	–	–
7.35	> 1000	O=C(Nc1ccc(O[C@@H]2CCNC2)cc1)c1cccc(C(=O)Nc2ccc(O[C@@H]3CCNC3)cc2)n1 [Compound 193]	< 3.00	< 3.00	–	–	–
6.73	> 1000	O=C(Nc1ccc(O[C@@H]2CCNC2)cc1)c1cncc(C(=O)Nc2ccc(O[C@@H]3CCNC3)cc2)c1 [Compound 194]	< 3.00	< 3.00	–	–	–
7.35	> 1000	O=C(Nc1ccc(O[C@@H]2CCNC2)cc1)c1ccnc(C(=O)Nc2ccc(O[C@@H]3CCNC3)cc2)c1 [Compound 195]	< 3.00	< 3.00	–	–	–
7.52	164 (≈ 356 µM)	O=C(Nc1ccc(OC2CNC2)cc1)c1cc(C(=O)Nc2ccc(OC3CNC3)cc2)ncn1 [Compound 196]	< 3.00	3.03	–	–	–
7.85	187 (≈ 383 µM)	O=C(Nc1ccc(O[C@@H]2CCNC2)cc1)c1cc(C(=O)Nc2ccc(O[C@@H]3CCNC3)cc2)ncn1 [Compound 197]	3.39	3.06	–	–	–
8.40	24 (≈ 44.1 µM)	NC1CCC(Oc2ccc(NC(=O)c3cc(C(=O)Nc4ccc(OC5CCC(N)CC5)cc4)ncn3)cc2)CC1 (stereo not drawn) [Compound 200]	4.57	4.43	–	–	–
> 9.00	48 (≈ 98.6 µM)	O=C(Nc1ccc(N2CCNCC2)cc1)c1cc(C(=O)Nc2ccc(N3CCNCC3)cc2)ncn1 [Compound 201]	3.86	3.63	–	–	–
< 7.00	–	CN1CCN(c2ccc(NC(=O)c3cc(C(=O)Nc4ccc(N5CCN(C)CC5)cc4)ncn3)cc2)CC1 [Compound 212]	< 3.00	< 3.00	–	–	–
< 7.00	–	CN1CCN(c2ccc(-c3cc(-c4ccc(N5CCN(C)CC5)cc4)ncn3)cc2)CC1 [Compound 278]	< 3.00	< 3.00	–	–	–
7.06	–	N=C(N)N1CCN(c2ccc3sc4ccc(N5CCN(C(=N)N)CC5)cc4c3c2)CC1 [Compound 292]	3.15	< 3.00	–	–	–
< 7.00	–	CCn1c2ccc(N3CCN(C(=N)N)CC3)cc2c2cc(N3CCN(C(=N)N)CC3)ccc21 [Compound 294]	< 3.00	< 3.00	–	–	–
7.10	–	COc1cccc(C(=O)Nc2cc(C(F)(F)F)cc(NC(=O)c3cc(C(=O)Nc4cc(C(F)(F)F)cc(NC(=O)c5cccc(OC)c5)c4SCCN)ncn3)c2SCCN)c1 [Compound 309]	< 3.00	< 3.00	–	–	–
–	6 (≈ 6.23 µM)	COc1ccc(C(=O)Nc2cc(C(F)(F)F)cc(NC(=O)c3cc(C(=O)Nc4cc(C(F)(F)F)cc(NC(=O)c5ccc(OC)c(OC)c5)c4SCCN)ncn3)c2SCCN)cc1OC [Compound 312]	< 2.00	< 3.00	–	–	–
–	14 (≈ 17.5 µM)	COc1ccc(C(=O)Nc2cc(C(F)(F)F)cc(NC(=O)c3cc(C(=O)Nc4cc(C(F)(F)F)cc(N)c4SCCN)ncn3)c2SCCN)cc1OC [Compound 313]	4.04	3.26	–	–	–
–	22 (≈ 29.7 µM)	NCCSc1c(N)cc(C(F)(F)F)cc1NC(=O)c1cc(C(=O)Nc2cc(C(F)(F)F)cc(NC(=O)c3cccnc3)c2SCCN)ncn1 [Compound 316]	4.48	4.39	–	–	–

The next lines start with the compound.

SMILES	pIC50 [2]	EC50 [4] [µg/mL]	pEC50 [1, 5]	pEC50 [3, 6]	pEC50 [1]	pEC50 [3]	EC50 ([4]; hemolysis assay, read-out: Cytotoxicity Hemolysis EC50) [µg/mL]
N=C(N)NCCCc1cccc(-c2cncc(-c3cccc(CCCNC(=N)N)c3)c2)c1 [Compound 132]	6.95	> 1000	3.49	3.34	–	–	–
N=C(N)NCCc1cccc(-c2cncc(-c3cccc(CCNC(=N)N)c3)c2)c1 [Compound 134]	6.90	> 1000	3.18	3.04	–	–	–
N=C(N)NCCC#Cc1cncc(-c2cccc(-c3cncc(C#CCCNC(=N)N)c3)c2)c1 [Compound 137]	6.73	> 1000	3.57	3.37	–	–	–
N=C(N)NCCCCCC(=O)Nc1cccc(-c2cc(-c3ccc(NC(=O)CCCCNC(=N)N)cc3)nc(-c3ccccc3)n2)c1 [Compound 139]	6.37	–	4.44	4.64	–	–	–
N=C(N)NCCCOc1cc(OCCCNC(=N)N)c(-c2ccncc2)cc1-c1ccncc1 [Compound 140]	6.22	> 1000	< 2.84	< 2.84	–	–	–
NCCC#Cc1cncc(-c2cccc(-c3cncc(C#CCCN)c3)c2)c1 [Compound 142]	6.10	538 (≈ 1470 µM)	3.64	3.23	–	–	–
NCCCOc1cccc(-n2cc(-c3ccc4ccc(-c5cn(-c6cccc(OCCCN)c6)nn5)cc4c3)nn2)c1 [Compound 152]	7.05	0.8 (≈ 1.43 µM)	3.39	3.30	–	–	–
N=C(N)N1CCN(c2ccc(-c3cc(-c4ccc(N5CCN(C(=N)N)CC5)cc4)ncn3)cc2)CC1 [Compound 153]	7.11	116 (≈ 239 µM)	3.51	3.34	–	–	–
c1nc(-c2ccc(N3CCNCC3)cc2)cc(-c2ccc(N3CCNCC3)cc2)n1 [Compound 154]	6.33	352 (≈ 879 µM)	3.68	3.33	–	–	–
NCc1ccc(C(F)(F)F)c(Oc2ccc(S(=O)(=O)c3ccc(Oc4cc(CN)ccc4C(F)(F)F)cc3)cc2)c1 [Compound 156]	6.59	9 (≈ 15.1 µM)	4.60	4.30	–	–	–
N=C(N)NCCCCC(=O)Nc1cc(C(F)(F)F)cc(NC(=O)c2cc(C(=O)Nc3cc(C(F)(F)F)cc(NC(=O)CCCCNC(=N)N)c3SCCNC(=O)CN)ncn2)c1SCCNC(=O)CN [Compound 160]	6.03	250 (≈ 242 µM)	4.18	3.65	–	–	–
N=C(N)NCCCCC(=O)Nc1cccc(NC(=O)c2cc(C(=O)Nc3cccc(NC(=O)CCCCNC(=N)N)c3SCCN)ncn2)c1SCCN [Compound 161]	6.03	–	3.16	3.17	–	–	–
O=S(=O)(c1ccc(Oc2cc(NC3CCNCC3)cc(C(F)(F)F)c2)cc1)c1ccc(Oc2cc(NC3CCNCC3)cc(C(F)(F)F)c2)cc1 [Compound 163]	–	–	4.22	4.01	–	–	–
N=C(N)NCCc1ccc(C(F)(F)F)cc1NC(=O)c1cc(C(=O)Nc2cc(C(F)(F)F)ccc2CCNC(=N)N)ncn1 [Compound 176]	6.20	314 (≈ 503 µM)	3.28	3.22	–	–	–
NCCCOc1cccc(-n2cc(-c3cccc(-c4cn(-c5cccc(OCCCN)c5)nn4)c3)nn2)c1 [Compound 180]	6.19	63 (≈ 123 µM)	4.40	4.11	–	–	–
COc1cc(SCCN)c(C(F)(F)F)cc1NC(=O)c1cc(C(=O)Nc2cc(C(F)(F)F)c(SCCN)cc2OC)nc(SCCN)n1 [Compound 183]	6.42	5 (≈ 6.76 µM)	3.16	3.13	–	–	–
COc1cc(SCCNC(=N)N)c(C(F)(F)F)cc1NC(=O)c1cc(C(=O)Nc2cc(C(F)(F)F)c(SCCNC(=N)N)cc2OC)nc(SCCNC(=N)N)n1 [Compound 184]	6.89	4 (≈ 4.62 µM)	3.32	< 3.00	–	–	–
N#Cc1cccc(C(=O)Nc2cc(C(F)(F)F)cc(NC(=O)c3cc(C(=O)Nc4cc(C(F)(F)F)cc(NC(=O)c5cccc(C#N)c5)c4O[C@@H]4CCNC4)ncn3)c2O[C@@H]2CCNC2)c1 [Compound 186]	6.75	107 (≈ 117 µM)	4.20	< 3.00	–	–	–
NCCSc1ccc(NC(=O)c2cc(C(=O)Nc3ccc(SCCN)c(C(F)(F)F)c3)ncn2)cc1C(F)(F)F [Compound 188]	6.86	4 (≈ 6.62 µM)	6.00	5.05	–	–	–
NCCc1cccc(NC(=O)c2cccc(C(=O)Nc3cccc(CCN)c3)n2)c1 [Compound 191]	6.34	> 1000	< 3.00	< 3.00	–	–	–
N=C(N)N1CC=C(c2ccc(NC(=O)c3cc(C(=O)Nc4ccc(C5=CCN(C(=N)N)CC5)cc4)ncn3)cc2)CC1 [Compound 219]	–	–	3.04	< 3.00	–	–	–
NCCCn1c2ccc(C3=CCNCC3)cc2c2cc(C3=CCNCC3)ccc21 [Compound 288]	–	–	–	–	< 3.00	< 3.00	> 1000
N=C(N)NCCCn1c2ccc(C3=CCNCC3)cc2c2cc(C3=CCNCC3)ccc21 [Compound 290]	< 7.00	–	–	–	< 3.00	< 3.00	–
COc1cc(OC)c(C(=O)Nc2cc(C(F)(F)F)cc(NC(=O)c3cccc(C#N)c3)c2SCCN)cc1C(=O)Nc1cc(C(F)(F)F)cc(NC(=O)c2cccc(C#N)c2)c1SCCN [Compound 300]	–	–	3.07	3.07	–	–	–
NCCSc1c(NC(=O)c2cc(C(=O)Nc3cc(C(F)(F)F)cc(NC(=O)c4ccc(Cl)cc4Cl)c3SCCN)ncn2)cc(C(F)(F)F)cc1NC(=O)c1ccc(Cl)cc1Cl [Compound 314]	–	–	< 3.00	3.08	–	–	–

Source: patent publication US20150094294A1, “COMPOUNDS AND METHODS FOR TREATING MALARIA” (Cellceutix Corporation, priority 2012, published 2015)
